Numbering of substitutions follows the chain as printed.

This is an account of results in publication PMC11725581, “Developing novel Lin28 inhibitors by computer aided drug design” (Cell Death Discovery, 2025).

The first experiment has as its target T1, Lin28b ZKD (Homo sapiens, UniProt Q6ZN17).
T1 sequence (Q6ZN17 127-166 limits assumed): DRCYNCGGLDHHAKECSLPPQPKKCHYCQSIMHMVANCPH
The experiment in a line: Fluorescence polarization (FP) assay, Lin28b ZKD:pre-let-7d interaction. As to conditions: 10 nM pre-let-7d probe, 1 μM Lin28b ZKD. It is filed as binding. Here is the method: (§1) We conducted two biochemical assays, FP and EMSA, to validate the predicted compounds. To optimize the FP assays, we performed a series of titrations using: (1) FAM-labeled pre-let-7d RNA probe, (2) Lin28b ZKD protein, and (3) non-labeled pre-let-7 probe as a competitor (Fig. 2A). These assays yielded the optimal concentrations required for the subsequent FP validation assays, namely 10 nM for the pre-let-7d probe and 1 μM for Lin28b ZKD protein. The FP signal from the free probe was set as 0%, while the signal from the probe-ZKD complex in the absence of compounds was set as 100%. C1632 was used as a control Lin28 inhibitor (Fig. 2B). […] Since the docking pocket is almost identical between Lin28a and Lin28b homologs, we repeated the FP assays using Lin28a ZKD (Figure S2).
The fluorescein amidites (FAM)-tagged pre-Let-7d probe with the sequence of […] was purchased from Integrated DNA Technologies (IDT). The probe at the concentrations ranging from 1 nM to 50 uM was incubated with Lin28B (ZKD) or Lin28 (CSD+ZKD) to a final volume of 30 uL at room temperature for 20 min. To read the fluorescence, a TECAN 500 machine was used. Fluorescence polarization was calculated using the following equation:
P=(Fparrallel−Fperpendicular)/(Fparrallel+FperpendicularP)
where P is the fluorescence polarization reading, F parallel is the fluorescence intensity acquired from the parallel excitation plane, and F perpendicular is the fluorescence intensity acquired from the perpendicular direction of the excitation plane. The total fluorescence intensity is estimated using the following equation:
F=Fparallel+2FperpendicularF.
(§2) All the raw FP signal data from the TECAN 500 FP results were analyzed using Prism 8.0 (GraphPad, San Diego, CA, USA); normalized curves were plotted and IC50 values were estimated. All FP data were repeated three to five times.
Figure S1. Lin28b ZKD protein was incubated with the indicated compounds at the concentration of 0, 0.1, 0.2, 0.5, 1, 2, 5, 10, 20, 50, 100, and 200uM. FP signals were measured and plotted relative to that from vehicle.
Turning to `CC(C)c1cc(Nc2csc(=O)[nH]2)c(O)cc1O` [Ln267], half-maximal inhibition (IC50) was put at 4.67 µM. As to `Cc1c(O)cnc(Nc2cccc(=O)[nH]2)c1O` [Ln302], the IC50 came out at 3.63 µM.

`O=c1cccc(-c2nc(=O)c3cc(O)c(F)cc3[nH]2)[nH]1` [Ln115] came in with an IC50 of 21 µM.

Still in this experiment, the particulars now being: FP / EMSA.
Take `O=c1cccc(Nc2ccncc2O)[nH]1` [Ln300]: the “activity in protein-based assays” value was “active”. Still for that read-out and setting: then `Cn1cnc2c(=O)[nH]c(-c3nc(=O)c4cc(O)c(F)cc4[nH]3)cc21` [Ln279], with “active”. On the same count and under the same terms, the entry for `Cc1cc(O)cc2c(=O)nc(-c3nccc(=O)[nH]3)[nH]c12` [Ln282] is “inactive”; for `Cc1cc(-c2nc(=O)c3cc(O)c(F)cc3[nH]2)[nH]c(=O)c1` [Ln275] it is “inactive”. With `CC(C)c1cc(Nc2csc(=O)[nH]2)c(O)cc1O` [Ln267], the “activity in protein-based assays” value is “higher potency in FP assays”.

For the molecule `O=c1cccc(Nc2ccc(O)cc2O)[nH]1` [Ln295], the “activity in protein-based assays” value was “inactive”. Take `O=c1cccc(Nc2ncc(O)cc2O)[nH]1` [Ln298]: the “activity in protein-based assays” value is reported as “active”. The same measure, in the same setting: then `O=c1cccc(Nc2ccccc2O)[nH]1` [Ln296], with “inactive”; and `CN(C)c1ccc(=O)[nH]c1-c1nc(=O)c2cc(O)c(F)cc2[nH]1` [Ln277], with “inactive”.

Staying with this experiment, now noted: FP assays used for SAR guided design.
For `CC(C)(C)c1ccc(O)c(Nc2cccc(=O)[nH]2)c1` [Ln250], the “FP potency relative to Ln15” value is given as “outperformed Ln15”.

For the next experiment, the target named is T2, Lin28a ZKD (Homo sapiens, UniProt Q9H9Z2).
T2 sequence (Q9H9Z2 137-176 limits assumed): T1 sequence (Q6ZN17 127-166 limits assumed) with S17K, Y27F, M32S, N37S, H40L
Nature of the experiment: Fluorescence polarization (FP) assay, Lin28a ZKD:pre-let-7 interaction. It counts as binding. As to conditions: 0-200 uM. Here is the method: as §1
The fluorescein amidites (FAM)-tagged pre-Let-7d probe with the sequence of […] was purchased from Integrated DNA Technologies (IDT). The probe at the concentrations ranging from 1 nM to 50 uM was incubated with Lin28B (ZKD) or Lin28 (CSD+ZKD) to a final volume of 30 uL at room temperature for 20 min. To read the fluorescence, a TECAN 500 machine was used. Fluorescence polarization was calculated using the following equation: […]
as §2
Figure S2. Lin28a ZKD protein was incubated with the indicated compounds at the concentration of 0, 0.1, 0.2, 0.5, 1, 2, 5, 10, 20, 50, 100, and 200uM. FP signals were measured and plotted relative to that from vehicle.
`O=c1cccc(Nc2ccncc2O)[nH]1` [Ln300]: the “potency in blocking the Lin28a ZKD:pre-let-7 interaction (FP) relative to parents” value (“potency … (FP) relative to parents” for short) is “more potent than Ln15 and Ln115”.

As for `Cn1cnc2c(=O)[nH]c(-c3nc(=O)c4cc(O)c(F)cc4[nH]3)cc21` [Ln279], the “potency … (FP) relative to parents” value is “more potent than Ln15 and Ln115”. Still for that read-out and setting: then `CC(C)c1cc(Nc2csc(=O)[nH]2)c(O)cc1O` [Ln267], with “more potent than Ln15 and Ln115”; and `O=c1cccc(-c2nc3cc(F)c(O)c(F)c3c(=O)[nH]2)[nH]1` [Ln272], with “more potent than Ln15 and Ln115”; and `O=c1cccc(Nc2ncc(O)cc2O)[nH]1` [Ln298], with “more potent than Ln15 and Ln115”.

As for `O=c1cccc(Nc2cccc(O)c2O)[nH]1` [Ln306], the “potency … (FP) relative to parents” value is “more potent than Ln15 and Ln115”. Still for that read-out and setting: then `Cc1c(O)cnc(Nc2cccc(=O)[nH]2)c1O` [Ln302], with “more potent than Ln15 and Ln115”.

In another experiment the target is T1, Lin28b ZKD. Nature of the experiment: EMSA, Lin28b ZKD:pre-let-7d complex formation. It is filed as binding. To be noted: 1 μM Lin28 ZKD, 10 nM IRDye800-labeled pre-let-7d probe. On the procedure:
We next validated the newly developed compounds using EMSA, a non-florescent-based assay to detect Lin28b ZKD:pre-let-7 complex formation. Similar to the FP assays, we first optimized the experimental conditions by titrating: (1) IRDye800-labeled pre-let-7d RNA probe, (2) Lin28b ZKD protein, and (3) non-labeled pre-let-7 probe as a competitor (Fig. 2C). For the validation experiments, 1 μM Lin28 ZKD and 10 nM of IRDye800-labeled pre-let-7d probe were mixed with each candidate compound. Compounds C1632 and Ln15 were used as control Lin28 inhibitors, respectively. […] Regardless, we use these two biochemical assays to shortlist the most promising compounds for further characterization. […] While our inhibitors directly target the Lin28 ZKD, it is unclear whether C1632 may bind to domains other than the ZKD or allosterically disrupt Lin28’s capacity to bind its RNA substrates.
EMSA followed the standard protocols we published. An IRDye800CWN-labeled pre-Let-7d RNA probe (5’-IRD800CWN-[…]-3’) was purchased from IDT (Coralville, IA, USA). Lin28a or Lin28b proteins were incubated with 300 nM of probe in a standard 20 uL EMSA reaction in a reaction buffer containing 20 mM HEPES-NaOH, pH 7.4, 2 mM DTT, 3 mM MgCl2, 0.05% NP-40, protease inhibitors, and 0.1 ug poly[dI:dC]. After incubation for 30 min at 37 °C, reactions were loaded onto 4% non-denatured polyacrylamide gel in 0.5× TBE buffer. The RNA oligo bands were visualized by using the Li-Cor Odyssey 9120 Infrared Imaging System.
For the molecule `O=c1cccc(Nc2ccncc2O)[nH]1` [Ln300], the “inhibition of Lin28b ZKD:pre-let-7d complex formation (EMSA)” value (“inhibition” for short) is “capable of inhibiting Lin28:pre-let-7d complex formation in a dose-dependent manner”. Still for that read-out and setting: the entry for `Cn1cnc2c(=O)[nH]c(-c3nc(=O)c4cc(O)c(F)cc4[nH]3)cc21` [Ln279] is “capable of inhibiting Lin28:pre-let-7d complex formation in a dose-dependent manner”; for `Cc1cccc(Nc2csc(=O)[nH]2)c1O` [Ln269] it is “capable of inhibiting Lin28:pre-let-7d complex formation in a dose-dependent manner”. Take `O=c1cccc(-c2nc(=O)c3cc(O)c(CO)cc3[nH]2)[nH]1` [Ln276]: the “inhibition” value was “capable of inhibiting Lin28:pre-let-7d complex formation in a dose-dependent manner”. The same measure, in the same setting: then `O=c1cccc(Nc2ncc(O)cc2O)[nH]1` [Ln298], with “capable of inhibiting Lin28:pre-let-7d complex formation in a dose-dependent manner”; and `O=c1cccc(Nc2cccc(O)c2O)[nH]1` [Ln306], with “capable of inhibiting Lin28:pre-let-7d complex formation in a dose-dependent manner”; and `Cc1c(O)cnc(Nc2cccc(=O)[nH]2)c1O` [Ln302], with “capable of inhibiting Lin28:pre-let-7d complex formation in a dose-dependent manner”. On to `Cc1cc2[nH]c(-c3cccc(=O)[nH]3)nc(=O)c2cc1O` [Ln274], for which the “inhibition” value was “capable of inhibiting Lin28:pre-let-7d complex formation in a dose-dependent manner”.

The next experiment relates to Lin28b protein expression in DuNE cells. Nature of the experiment: Lin28b protein levels by immunoblotting in DuNE cells. It counts as cell-based. To be noted: 20uM, 72 h. Here is the method: We further tested whether the 13 candidate compounds could penetrate the cell membrane, endure cell-mediated metabolism and excretion, and inhibit Lin28 activities inside cancer cells. […] Since let-7 and Lin28b mutually regulate each other’s expression, increased let-7 expression by Lin28 inhibitors would suppress Lin28b protein levels.
Fig. 3 Validate CADD predicted compounds by cell-based assays. A, B DuNE cells were treated with Lin28b inhibitors for 72 h. Let-7d RNA levels were measured by real-time qPCR (A) and Lin28b protein levels were measured by immunoblotting (B). […] Cell proliferation rates were measured by Incucyte. D Overlay of 1H-15N HSQC spectra for Lin28b-ZKD (black), Lin28b-ZKD + Ln15 (orange), and Lin28b-ZKD + Ln268 (blue). Ligands were added in a 20:1 molar ratio. Approximately 20 residues are seen to shift (from black to orange/blue), with ca. 5 resonances disappearing for Lin28b-ZKD in the presence of Ln268. E Overlay of the 20 NMR models for 2CQF (gray) and 2LI8 (blue) showing the rearrangement of residues 137–160 in going from Lin28b-ZKD alone to the conformation with RNA present. The conformation of Lin28b-ZKD in the presence of the ligands described herein might resemble that of 2LI8, but with a larger conformational spread. All results are presented as the mean ± SD.
Total RNA was extracted by TRIZOL reagent (Invitrogen), treated with deoxyribonuclease and reversely transcribed by random hexamers and superscript II (Invitrogen). Real-time qPCR was performed on the ABI PRISM 7900 HT system (Applied Biosystems) using the FastStart Universal SYBR Green Master mix (Roche) following standard protocol as we reported. All real-time qPCR assays were carried out in triplicates from three independent cDNA syntheses. For immunoblotting assays, whole cell lysis was extracted by a buffer containing 50mM of Tris pH8.0, 150mM of NaCl, 1% NP40, 0.5% sodium deoxycholate, 0.1% SDS and proteinase and phosphatase inhibitors (Roche). Protein lysis separated by SDS-PAGE, transferred to polyvinylidene difluoride membrane, and blotted by specific antibodies.
Take `O=c1cccc(Nc2ccncc2O)[nH]1` [Ln300]: the “effect on Lin28b protein expression” value is “suppressed Lin28b protein expression”. `CC(C)c1cc(Nc2csc(=O)[nH]2)c(O)cc1O` [Ln267]: the “effect on Lin28b protein expression” value is on record as “suppressed Lin28b protein expression”. Take `Cc1cccc(Nc2csc(=O)[nH]2)c1O` [Ln269]: the “effect on Lin28b protein expression” value is on record as “suppressed Lin28b protein expression”. In the case of `Cc1c(F)c(O)c(F)c2c(=O)[nH]c(-c3cccc(=O)[nH]3)nc12` [Ln273], the “effect on Lin28b protein expression” value is recorded as “suppressed Lin28b protein expression”. Still for that read-out and setting: the entry for `O=c1cccc(-c2nc3cc(F)c(O)c(F)c3c(=O)[nH]2)[nH]1` [Ln272] is “suppressed Lin28b protein expression”. On the same count and under the same terms, the entry for `O=c1cccc(Nc2ncc(O)cc2O)[nH]1` [Ln298] is “suppressed Lin28b protein expression”.
